Results from US20030166663A1, “Use” (priority 2001, published 2003).
“And” between values parts separate entries of the source, which are not always exact repeats. Equal values may be shown once. Read-outs that look alike come from different tables or passages of the source.

Tests used:
[1] = Determination of plasma concentration at steady state (Css, tot) in ob/ob mice; assay type: in vivo, mouse; conditions: continuous s.c. infusion, read-out: Css, tot (total plasma exposure at steady state)
Procedure: (§1) The animals are weighed at the start of the study and randomized based on body weight. Alzet osmotic minipumps (Model 2001D; infusion rate 8 μl/h) are used and loaded essentially as recommended by the Alzet technical information manual (Alza Scientific Products, 1997; Teeuwes and Yam, 1976). Continuous subcutaneous infusion with 24 hours duration is used. The minipumps are either filled with different concentrations of test compounds dissolved in vehicle or with only vehicle solution and maintained in vehicle pre-warmed to 37° C. (approx. 1 h). The minipumps are implanted subcutaneously in the neck/back region under short acting anesthesia (metofane/enflurane). This surgical procedure lasts approximately 5 min. It takes about 3 h to reach steady state delivery of the compound.
(§2) The weights of the food pellets are measured at 5 p.m. and at […]. for two days before (baseline) and one day after the implantation of the osmotic minipumps. The weighing is performed with a computer assisted Mettler Toledo PR 5002 balance. Occasional spillage is corrected for. At the end of the study the animals are killed by neck dislocation and trunk blood sampled for later analysis of plasma drug concentrations.
The plasma sample proteins are precipitated with methanol, centrifuged, and the supernatant is transferred to HPLC vials and injected into the liquid chromatography/mass spectrometric system. The mass spectrometer is set for electrospray positive ion mode and Multiple Reaction Monitoring.
A linear regression analysis of the standards forced through the origin is used to calculate the concentrations of the unknown samples.

[2] = test system: ob/ob mice; experiment: Effect of compounds on food intake in ob/ob mice (15 h food consumption, s.c. minipump infusion); assay type: in vivo, mouse; conditions: for Food intake, % of basal level, Mean: 15 h food consumption; for Inhibition (%) Based on basal (food intake): relative to vehicle
Procedure: Obese (ob/ob) mouse is selected as the primary animal model for screening as this mutant mouse consumes high amounts of food resulting in a high signal to noise ratio. To further substantiate and compare efficacy data, the effect of the compounds on food consumption is also studied in wild type (C57BL/6J) mice. The amount of food consumed during 15 hours of infusion of compounds is recorded.
Male mice (obese C57BL/6JBom-Lep^ob and lean wild-type C57B1/6JBom; Bomholtsgaard, Denmark) 8-9 weeks with an average body weight of 50 g (obese) and 25 g (lean) are used in all the studies. The animals are housed singly in cages at 23±1° C., 40-60 % humidity and have free access to water and standard laboratory chow. The 12/12-h light/dark cycle is set to lights off at 5 p.m. The animals are conditioned for at least one week before start of study.
The test compounds are dissolved in solvents suitable for each specific compound such as cyclodextrin, cyclodextrin/methane sulfonic acid, polyethylene glycol/methane sulfonic acid, or saline. Fresh solutions are made for each study. […] The purity of the test compounds is of analytical grade.
as §1, §2
Food consumption for 15 hours is measured for the three consecutive days and the percentage of basal level values is derived for each animal from the day before and after treatment. The values are expressed as mean±SD and mean±SEM from eight animals per dose group. Statistical evaluation is performed by Kruskal-Wallis one-way ANOVA using the per cent basal values. If statistical significance is reached at the level of p<0.05, Mann-Whitney U-test for statistical comparison between control and treatment groups is performed.

[3] = mouse, plasma, subcutaneous, nominal 10 mg/kg/day
[4] = mouse, plasma, subcutaneous, nominal 30 mg/kg/day
[5] = mouse, plasma, subcutaneous, nominal 100 mg/kg/day
[6] = nominal 10 mg/kg/day s.c. infusion
[7] = nominal 30 mg/kg/day s.c. infusion
[8] = nominal 100 mg/kg/day s.c. infusion

| SMILES | concentration at 24 h [1, 3] [nM] | concentration at 24 h [1, 4] [nM] | concentration at 24 h [1, 5] [nM] | Food intake, % of basal level, Mean [2, 6] | Food intake, % of basal level, Mean [2, 7] | Food intake, % of basal level, Mean [2, 8] | Inhibition (%) Based on basal (food intake) [2, 6] | Inhibition (%) Based on basal (food intake) [2, 7] [%] | Inhibition (%) Based on basal (food intake) ([2]; nominal 30 mg/kg/day s.c. infusion, listed as 5-Chloro-3-methyl-benzo[b]thiophene-2-sulfonic acid (4-[4-methylpiperazin-1-yl]q) [%] | Inhibition (%) Based on basal (food intake) [2, 8] [%] | Inhibition (%) Based on basal (food intake) ([2]; nominal 100 mg/kg/day s.c. infusion, listed as 5-Chloro-3-methyl-benzo[b]thiophene-2-sulfonic acid (4-[4-methylpiperazin-1-yl]q) [%] | Inhibition (%) Based on basal (food intake) ([2]; nominal 30 mg/kg/day s.c. infusion, listed as 4-n-Butyl-N-(4-piperazin-1-yl-quinolin-6-yl)benzenesulfonamide) [%] | Inhibition (%) Based on basal (food intake) ([2]; nominal 100 mg/kg/day s.c. infusion, listed as 4-n-Butyl-N-(4-piperazin-1-yl-quinolin-6-yl)benzenesulfonamide) [%] | concentration at 24 h ([1]; nominal 10 mg/kg/day) |
| --- | --- | --- | --- | --- | --- | --- | --- | --- | --- | --- | --- | --- | --- | --- |
| Cc1c(S(=O)(=O)Nc2ccc3nccc(N4CCN(C)CC4)c3c2)sc2ccc(Cl)cc12 [EXAMPLE 1, 5-chloro-3-methyl-benzo[b]thiophene-2-sulphonic acid (4-[4-methylpiperazin-1-yl]quinolin-6-yl)amide] | 1000 | 1620 | 1810 | 62.5 % of basal level | 49.3 % of basal level | 49.9 % of basal level | 4.9% | 25.0 | 25 | 24.1 | 24 | – | – | – |
| CCCCc1ccc(S(=O)(=O)Nc2ccc3nccc(N4CCNCC4)c3c2)cc1 [EXAMPLE 2, 4-n-butyl-N-(4-piperazin-1-yl-quinolin-6-yl)benzenesulphonamide] | 370 | 940 | 1290 | 61.0 % of basal level | 45.5 % of basal level | 43.6 % of basal level | 6.5% | 30.2 | – | 33.2 | – | 30 | 33 | – |
| Clc1cccc(N2CCNCC2)c1 [mCCP, m-chlorophenylpiperazine, reference compound] | – | – | – | 31.2 % of basal level and 39.4 % of basal level | – | – | 52.5% and 39.6% | – | – | – | – | – | – | 610 nM and 780 nM |
